Patent US6428983B1, “Histone deacetylase as target for antiprotozoal agents” (Merck & Co., priority 1995, dated 2002)
Each block holds one molecule with its values, some of them ahead of it.

Legend:
HeLa cell histones = assay: Histone acetylation state in HeLa cells (AUT gel electrophoresis); assay type: cell-based, human; settings: HeLa cells treated 4 hrs, FIG. 1, relative to untreated cells
Experimental: About 2×10^7 HeLa cells growing at 37 C were treated with various compounds in the standard tissue culture medium (MEM containing 10% fetal calf serum) for 4 hrs. Cells were then removed from the flask by scraping in PBS in a total volume of about 10 mls. The cells were washed twice in PBS and resuspended in about 3 mls lysis buffer (Lysis buffer; 0.45% Nonidet® P-40, 10 mM tris, 10 mM NaCl, 5 mM MgCl, 0.1 mM EGTA, 0.1 mM PMSF). The suspension was mixed by vortexing for 10 seconds, incubated on ice for 15 minutes and nuclei were pelleted by centrifugation through a 1 ml cushion of 30% sucrose in lysis buffer at 1300×g for 10 minutes. The supernatant was discarded and the nuclei were then resuspended in 1.0 ml water. H2SO4 was added to a final concentration of 0.4M and the nuclear suspension was incubated on ice for 30 min. and then pelleted by centrifugation at 13,000×g for 10 minutes. The pellets were discarded, and ten volumes of ice cold acetone was added to the supernatant proteins and left overnight at −20° C. to precipitate soluble proteins. These proteins (predominantly histones) were pelleted by centrifugation at 10,000×g for 15 minutes at 4° C. and resuspended in AUT sample buffer (Sample buffer: 0.9M acetic acid, 0.02% w/v methyl green) in preparation for gel electrophoresis.
Acid urea triton (AUT) polyacrylamide gels were performed according to the methods of Alfageme et al (1974) J. Biol. Chem. 249, 3729, with modifications as described in Lennox and Cohen (Methods in Enzymology, 170, 532-549). For optimal resolution of HeLa cell and Plasmodium falciparum histones the separation gel contained 7.5M urea, 12% acrylamide, 0.38% Triton® X 100, 0.08% bis acrylamide, and 0.87M acetic acid. The loading gels contained 7.5M urea, 0.37% Triton X 100, 6% acrylamide, 0.04% bis acrylamide and 0.87M acetic acid. […] Gels were either stained with Coomassie Brilliant Blue R in 7% acetic acid, 20% methanol and then destained in 7% acetic acid and 20% methanol, or treated with Enlightening (from New England Nuclear), dried and radiolabel detected by fluorography.

P. falciparum histones = assay: Histone acetylation state in P. falciparum (14C acetate labeling, AUT gel); assay type: cell-based; settings: infected red blood cells, 14C sodium acetate, 2 hours, FIG. 2
Experimental: Acid urea triton (AUT) polyacrylamide gels were performed according to the methods of Alfageme et al (1974) J. Biol. Chem. 249, 3729, with modifications as described in Lennox and Cohen (Methods in Enzymology, 170, 532-549). For optimal resolution of HeLa cell and Plasmodium falciparum histones the separation gel contained 7.5M urea, 12% acrylamide, 0.38% Triton® X 100, 0.08% bis acrylamide, and 0.87M acetic acid. The loading gels contained 7.5M urea, 0.37% Triton X 100, 6% acrylamide, 0.04% bis acrylamide and 0.87M acetic acid. Gels were run in 1M acetic acid. Gels were pre-electrophoresed at 350V for 1 hour and run at 450V for 3.5 hours. Gels were either stained with Coomassie Brilliant Blue R in 7% acetic acid, 20% methanol and then destained in 7% acetic acid and 20% methanol, or treated with Enlightening (from New England Nuclear), dried and radiolabel detected by fluorography.
Approximately 1×10^9 P. falciparum infected red blood cells (about 60% parasitized) were resuspended in 10 ml of RPMI 1640 containing various concentrations of test compounds and 250 μCi ^14C sodium acetate and incubated at 37° C. for 2 hours. The cells were then washed 3 time with PBS and histones were prepared as described below.
Histones were prepared according to the method of Cary et al (1994) Parasitology Research, 80, 255-258. […]

[1] = biological target: histone deacetylase (E. tenella lysate); assay: Competitive binding assay with 3H-N-desmethoxyapicidin, E. tenella S100 lysate; settings: 3H-N-desmethoxyapicidin ligand
Experimental: E. tenella oocysts. Approximately 2×10^9 E. tenella oocysts are suspended in 5 ml of PBS/0.1 mM PMSF, 4 mls of an equal mixture (vol/vol) of 4.0 and 1.0 mm glass beads is added. The glass bead-oocyst mixture is then shaken for 20 minutes to cause disruption of the oocysts. The efficiency of breakage is checked microscopically. The resulting homogenate is separated from the glass beads and centrifuged at 3000×g for 10 min. The supernatant is then subjected to an additional centrifugation at 100,000 g for 1 hr. The pellet is discarded and the supernatant, referred to as the E. tenella S100 fraction, is retained for binding assays. After estimating the protein concentration, the supernatant (S100) is aliquoted and frozen at −80 C.
(§1) Each assay tube contains a final volume of 1 ml with 1.3 ng/ml of ^3H-N-desmethoxyapicidin, 150-200 μg of the appropriate S100 supernatant and concentrations of potential HDA inhibitors from 0.001-10 μg/ml.
(§2) (i) labeled substrate. […]
(§3) Stock solutions of potential HDA inhibitors (ii) are diluted into 50 mM HEPES/Triton® buffer to achieve a final concentration of test compound in the range of 0.001-10 μM. ^3H-N-desmethoxyapicidin is added to a final concentration of 1.3 ng/ml. […] The filter is then dried and counted in scintillant.

[2] = system: histone deacetylase (chicken liver lysate); assay: Competitive binding assay with 3H-N-desmethoxyapicidin, chick liver S100 lysate; settings: 3H-N-desmethoxyapicidin ligand
Experimental: Chick Liver. Livers from 3-5 three week old chickens are collected, rinsed in ice cold phosphate buffered saline (pH 7.4), diced into small pieces and rinsed again 3-4 times with ice cold 50 mM N-2-hydroxyethylpiperazine-N′-2-ethanesulfonic acid (HEPES) (pH 7.4) containing 0.1 mM phenylmethanesulfonyl fluoride (PMSF). The tissue is then resuspended in HEPES buffer, homogenized in a polytron homogenizer and centrifuged at 3000×g for 10 min. The supernatant is then subjected to an additional 100,000 g centrifugation for 1 hour. The pellet and the floating layer of lipid are discarded and the supernatant, referred to as the chick liver S100 fraction, is retained for binding assays. After estimating the protein concentration, the supernatant (S100) is aliquoted and frozen at −80 C.
as §1, §2, §3

E. tenella = assay: In vitro antiparasitic activity against E. tenella; assay type: cell-based, Eimeria tenella
Text: (1) Generally following the procedure described in Crane, Schmatz, Stevens, Habbersett and Murray. Eimeria tenella: in vitro development in irradiated bovine kidney cells.(1984) Parasitology 88: 521-530.

P. falciparum = assay: In vitro antiparasitic activity against P. falciparum; assay type: cell-based
Text: (2) Generally following the procedure described in Desjardins et al, “Quantitative Assessment of Antimalarial Activity In Vitro by a Semiautomated Microdilution Technique” Antimicrobial Agents and Chemotherapy 1979, 16:710-718.

[3] = system: histone deacetylase (E. tenella extract); assay: Histone deacetylase inhibition assay (Assay 1), E. tenella extract; assay type: biochemical, Eimeria tenella
Experimental: (§4) The standard assay contained in a total volume of 40 μL: 400 nmol HEPES-sodium, pH 7.4, 100 pmol of the substrate [AcGly-Ala-Lys(ε-^14C-Ac)-Arg-His-Arg-Lys(ε-^14C-Ac)-ValNH2] (see Kervabon et al (1979) FEBS Letters 106: 93-96) having a specific activity of approx. 114 mCi/mmol, and a source of histone deacetylase (HDAase) activity. The amount of HDAase added was chosen such that ≦20% of the substrate was consumed during the assay. The reaction was initiated by enzyme addition and allowed to proceed for 60 min at 41°. At 60 min, the reaction was terminated by the addition of a 50% slurry of Amberlite® AG 50W×4 cation exchange resin, sodium form (200-400 mesh) in 25 mM sodium acetate buffer, pH 4.2 (200 μL). The resin binds both remaining substrate and the (partially) deacetylated peptidyl products. The quenched reaction was then incubated for at least 30 min at 25° with occasional mixing, diluted with additional 25 mM sodium acetate buffer, pH 4.2 (760 μL; final volume 1000 μL), incubated for a minimum of an additional 30 min at 25° with occasional mixing, and then centrifuged at 10,000×g for 1 min. An aliquot of the supernatant (800 μL) containing the enzymatically released ^14C-acetate was removed, mixed with Aquasol 2 liquid scintillation counter (LSC) cocktail (10 mL), and counted in a Beckman model LS-5801 LSC. […]

[4] = system: histone deacetylase (chicken liver extracts); assay: Histone deacetylase inhibition assay (Assay 1), chicken liver extract; assay type: biochemical; settings: Assay 1, chicken liver extracts
Experimental: as §4

SMILES: C[C@@H]1NC(=O)[C@H]2CCCN2C(=O)[C@H](CCCCCC(=O)[C@@H]2CO2)NC(=O)[C@@H](C)NC1=O [HC-toxin]
Hyperacetylation of HeLa cell histones (shift in histone gel profile) (HeLa cell histones): cause a distinct shift in the histone gel profiles

SMILES: CCC(=O)CCCCC[C@@H]1NC(=O)[C@H]2CCCCN2C(=O)[C@H]([C@@H](C)CC)NC(=O)[C@H](Cc2cn(OC)c3ccccc23)NC1=O [apicidin, Apicidin]
Hyperacetylation of HeLa cell histones (shift in histone gel profile) (HeLa cell histones): cause a distinct shift in the histone gel profiles | Hyperacetylation of P. falciparum histones (P. falciparum histones): cause hyperacetylation

IC50 [1]: > 1000 nM | IC50 in binding assay, E. tenella lysate [1]: no activity | IC50 in binding assay, chicken liver lysate [2]: no activity | IC50 against P. falciparum (P. falciparum): not active | IC50 in enzyme inhibition assay, E. tenella extract [3]: inactive | IC50 in enzyme inhibition assay, chicken liver extract [4]: inactive
SMILES: CC(/C=C/C(=O)O)=C\[C@@H](C)C(=O)c1ccc(N(C)C)cc1 [trichostatic acid]
minimum inhibitory concentration against E. tenella (E. tenella): not active

SMILES: CC(/C=C/C(=O)NO)=C\[C@@H](C)C(=O)c1ccc(N(C)C)cc1 [trichostatin]
Hyperacetylation of HeLa cell histones (shift in histone gel profile) (HeLa cell histones): cause a distinct shift in the histone gel profiles | Hyperacetylation of P. falciparum histones (P. falciparum histones): cause hyperacetylation
